Data as given in patent US8318792B2, “Therapeutic agent for amyotrophic lateral sclerosis” (Nippon Medical School Foundation, priority 2006, dated 2012).

What was measured:
[1] = test system: transgenic mouse which expresses human mutated SOD1 gene; conditions: Non-Patent Document 9, cited from earlier work
G1H-G93A transgenic mice = experiment: Clinical symptomatological evaluation (day of onset, survival period, disease period, stage periods); assay type: in vivo, mouse
Method: 1) The procedure of concentration adjustment, and the amount and the procedure of administration of the compound (a) were as described below. As a base, 0.5% methylcellulose is prepared. 5 mg of the compound (a) is pulverized in an agate mortar, and then a small amount of 0.5% methylcellulose is added to form a complete suspension. Subsequently, a small amount of 0.5% methylcellulose is added gradually, so that finally 5 mg of the compound (a) is suspended in 10 mL of 0.5% methylcellulose. A sample of 5 mg of compound (a)/10 mL of 0.5% methylcellulose (5 mg/10 mL) was prepared by the above-described procedure, and thus the compound (a) was orally administered once a day in a dose of 5 mg per kg of the mouse body weight (5 mg/kg).
As the experimental animal, male transgenic mice over-expressing a high copy number (25 copies) of mutated human SOD1 gene with a G93A point mutation, i.e., B6SJL-TgN [SOD1-G93A]1Gur (G1H-G93A transgenic mice, JR2726; Hemizygote) (Gurney M E, et al., Science, 264, 1772-1775, 1994), were purchased from Jackson Laboratory (Bar Harbor, USA) and used. At the same time, wild-type male mice from the same litter, B6SJL-TgN[SOD1-G93A]1Gur (Wild-type), were also purchased from Jackson Laboratory and used.
The mice were subjected to a clinical symptomatological evaluation everyday. The clinical symptomatological evaluation was performed from one week after the arrival from Jackson Laboratory. […] The day of onset, the survival period and the disease period were indicated by the number of days. In regard to the indication of the number of days of the disease period, one day (one disease day) corresponds to within 24 hours from the onset (the “onset” is determined by the observation of the clinical symptomatological evaluation stage 1), and two days (two disease days) corresponds to more than 24 hours after and within 48 hours from the onset. Subsequent disease days after the onset were determined in the same manner.
The mice were divided into seven experimental groups, to which a placebo, the compound (a), compound (b), compound (c) or allopurinol was administered. That is, the seven groups consist of: an experimental group administered with placebo; a treatment experimental group administered with compound (a) before onset; a treatment experimental group administered with compound (a) after onset; a treatment experimental group administered with compound (b) before onset; a treatment experimental group administered with compound (c) before onset; a treatment experimental group administered with compound (c) after onset; and a treatment group administered with allopurinol before onset. Details of the respective groups will be described in the following.
Ten G1H-G93A transgenic mice were used. From the 80th day after birth, 5 mg/kg of the compound (a) was orally administered everyday. […]
Ten G1H-G93A transgenic mice were used. From the 80th day after birth, 5 mg/kg of the compound (b) was orally administered everyday.
Ten G1H-G93A transgenic mice were used. From the 80th day after birth, 5 mg/kg of the compound (c) was orally administered everyday. […]
Ten G1H-G93A transgenic mice were used. From the 80th day after birth, 5 mg/kg of allopurinol was orally administered everyday.
In regard to the results of the clinical symptomatological evaluation, the day of onset, the survival period (days taken to show quadriplegia and to reach the moribund state), the disease period (days taken to show quadriplegia and to reach the moribund state, from the day of onset), and the time periods for the respective stages of the clinical symptomatological evaluation, were indicated by the average±standard deviation. In regard to the results of the exercise tolerance test, the score values of the respective exercise tolerance tests, including the extension reflex test, inclined plane test, footprint test, rotarod test and beam balance test, were indicated by the average±standard deviation. […]

[2] = test system: neurotoxin in cerebrospinal fluid from ALS patients; conditions: in vitro; Non-Patent Document 3; cited from earlier work
[3] = 5 mg/kg oral daily from 80th day after birth (before onset), Mann-Whitney's U test, log-rank test
[4] = 5 mg/kg oral once a day from 80th day after birth (before onset), average±SD

Row | Compound | effect on life span in the transgenic mouse [1] | ALS treating effect ([1]; intraperitoneal administration in an amount of 10 mg/kg) | time periods for the respective stages in comparison to placebo group (G1H-G93A transgenic mice; 5 mg/kg oral daily from 80th day after birth (before onset), Mann-Whitney's U test) | disease period extending effect in comparison to placebo group (G1H-G93A transgenic mice; [3]) | onset delaying effect in comparison to placebo group (G1H-G93A transgenic mice; [3]) | survival period extending effect in comparison to placebo group (G1H-G93A transgenic mice; [3]) | day of onset (G1H-G93A transgenic mice; [4]) [days] | disease period (G1H-G93A transgenic mice; [4]) [days] | survival period (G1H-G93A transgenic mice; [4]) [days] | time period of clinical symptomatological stage 1 (G1H-G93A transgenic mice; [4]) [days] | time period of clinical symptomatological stage 2 (G1H-G93A transgenic mice; [4]) [days] | time period of clinical symptomatological stage 3 (G1H-G93A transgenic mice; [4]) [days] | time period of clinical symptomatological stage 4 (G1H-G93A transgenic mice; [4]) [days] | time period of clinical symptomatological stage 5 (G1H-G93A transgenic mice; [4]) [days] | action on the neurotoxin in cerebrospinal fluid from ALS patients [2]
1 | [O-][n+]1cccc(/C(Cl)=N/OC[C@H](O)CN2CCCCC2)c1 [arimoclomol] | prolongation of life | effective |  |  |  |  |  |  |  |  |  |  |  |  | 
2 | Oc1ncnc2[nH]ncc12 [allopurinol, reference compound] |  |  | not found to have the extended period of respective stages with significant differences | did not lead to the onset delaying effect, survival period extending effect or disease period extending effect | did not result in significant delaying of the day of onset | did not lead to the onset delaying effect, survival period extending effect or disease period extending effect | 102.2 ± 4.4 | 21.0 ± 3.6 | 122.2 ± 1.3 | 6.8±1.1 | 5.4±1.3 | 4.4±1.2 | 2.9±0.7 | 1.5±0.5 | counteract the neurotoxin
3 | vitamin E |  |  |  |  |  |  |  |  |  |  |  |  |  |  | counteract the neurotoxin
